Experimental data taken from the COVID Moonshot data (paper PMC11187573), “Identification of SARS-CoV-2 Mpro inhibitors through deep reinforcement learning for de novo drug design and computational chemistry approaches” (RSC Medicinal Chemistry, 2024).

How the values were obtained:
[1] = biological target: SARS-CoV-2 Main Protease (SARS-CoV-2) (UniProt P0DTD1)
[2] = biological target: SARS-CoV-2 Main Protease (SARS-CoV-2) (UniProt P0DTD1); remark: listed apart in the source

Cc1cc(C(F)(F)F)nc2n[nH]c(NC(=O)Cc3cccc(Cl)c3)c12
IC50 [1]: 82 µM

CC(C)[C@H](NC(=O)OCc1ccccc1)C(=O)NC(C=O)Cc1ccccc1 (stereo in doubt)
inhibition ([1]; 50.0 µM): 0%

CN(C)c1ccc(N(Cc2ccn[nH]2)C(=O)Cn2nnc3ccccc32)cc1
IC50 [1]: 90.8 µM

Cc1nc(CN2C(=O)C(=O)c3cc(Br)ccc32)cs1
IC50 [1]: 18 µM

CCCCN1C(=O)C(=O)c2cc(Br)cc(C)c21
IC50 [1]: 57.6 µM

CCCCOc1ccc(Cl)cc1CC(=O)Nc1cnccc1C
IC50 [1]: 15.7 µM

Cc1cc(O)c2c3c(ccc2c1)C(=O)c1c(O)cccc1C3=O
inhibition ([1]; 50.0 µM): 5%

CC(=O)N1CCN(Cc2ccsc2)CC1
inhibition ([1]; 20.0 µM): 98.5% | inhibition ([1]; 50.0 µM): 97.4%

O=C(Nc1cncc2ccccc12)C1COc2c(Cl)cccc21 (centres undefined)
IC50 [1]: 5.36 µM

O=C(CCc1cccc(Cl)c1)Nc1cncc2ccccc12
IC50 [1]: 19.3 µM

O=C(Cc1cccc(Cl)c1)Nc1cnccc1C1CC1
IC50 [1]: 7.4 µM

O=C(Cc1cccc(Cl)c1)Nc1cncc2c1CCC2
IC50 [1]: 4.65 µM

COc1ccc2c(NC(=O)C3CCOc4ccc(Cl)cc43)noc2c1 (centres undefined)
IC50 [1]: 53.4 µM

COc1ccc(N(Cc2cccc(Cl)c2)C(=O)Cn2nnc3ccccc32)cc1
IC50 [1]: 5.65 µM

CC(=O)NCc1cc(Cl)cc(CC(=O)Nc2cnccc2C)c1
IC50 [1]: 55.5 µM

COc1cc2c(c3ccccc13)OC(C)(C)CC2Oc1cc2c(cc1C)C(=O)c1ccccc1C2=O (centres undefined)
inhibition ([1]; 50.0 µM): 4%

Nc1nn(C(=O)C2CCOc3ccc(Cl)cc32)c2ccncc12 (centres undefined)
IC50 [1]: 95.2 µM

COc1ccc(Cl)cc1OCCNC(=O)c1cc(=O)[nH]c2cccc(OC)c12
IC50 [1]: 0.19 µM

Nc1nn(C(=O)C2CCOc3ccc(Cl)cc32)c2cc(F)ccc12 (centres undefined)
IC50 [1]: 53.3 µM

O=C(c1cc(=O)cc[nH]1)N1CCN(c2cccc(Cl)c2)CC1
IC50 [1]: 58.9 µM

COc1cccc2[nH]c(=O)cc(C(=O)N3CCN(c4cccc(Cl)c4)CC3)c12
IC50 [1]: 1.84 µM

CC(=O)N1CCN(Cc2cccs2)CC1
inhibition ([1]; 20.0 µM): 96.7% | inhibition ([1]; 50.0 µM): 95.7%

O=C(COc1cccc(Cl)c1)Nc1cncc2ccccc12
IC50 [1]: 6.02 µM

CC[P](CC)(CC)=[Au][S][C@@H]1O[C@H](COC(C)=O)[C@@H](OC(C)=O)[C@H](OC(C)=O)[C@H]1OC(C)=O (stereo in doubt)
inhibition ([1]; 50.0 µM): 100%

Cc1ccc(NC2=C(c3ccccc3)C(=O)N(Cc3cccnc3)C2=O)c(C)c1
IC50 [1]: 54.6 µM

O=C(Cc1cccc(Cl)c1)Nc1[nH]nc2cc(F)ccc12
IC50 [1]: 91.5 µM

O=C(Cc1cccc(Cl)c1)Nc1cncc2nc[nH]c12
IC50 [1]: 7.97 µM | inhibition ([1]; 50.0 µM): 79.5%

Cc1ccncc1NC(=O)Cc1cc(Cl)cc(OCc2nnc(C3CCCCC3)o2)c1
IC50 [1]: 13.3 µM | inhibition ([1]; 50.0 µM): 100%

N#CC(C(=O)Nc1ccccc1)C(=O)c1cccs1 (centres undefined)
inhibition ([1]; 50.0 µM): 0%

Cc1ccncc1NC(=O)C(CO)c1cccc(Cl)c1 (centres undefined)
IC50 [1]: 47.3 µM

O=C(Nc1cncc2ccccc12)C1=CCCc2ccc(Cl)cc21
IC50 [1]: 0.0811 µM

COc1cc(COc2cc(Cl)cc(CC(=O)Nc3cnccc3C)c2)ccc1OC(F)F
IC50 [1]: 7.39 µM

COC(=O)C(C(=O)Nc1cnccc1C)c1cccc(Cl)c1 (centres undefined)
IC50 [1]: 17.1 µM

O=C(Cn1nnc2ccccc21)N(Cc1ccsc1)c1ccc(N2CCOCC2)cc1
IC50 [1]: 21.3 µM

Cc1cc(C(F)(F)F)nc2n[nH]c(NC(=O)C3CCOc4ccc(Cl)cc43)c12 (centres undefined)
IC50 [1]: 98.1 µM

Cc1ccncc1NC(=O)Cc1cc(Cl)cc(CNS(C)(=O)=O)c1
IC50 [1]: 32.2 µM

O=C(Nc1cncc2ccccc12)C1COc2ccc(Cl)cc21 (centres undefined)
IC50 [1]: 0.509 µM | inhibition ([1]; 50.0 µM): 77%

Cc1c(N)cncc1NC(=O)Cc1cccc(Cl)c1
IC50 [1]: 8.2 µM

CC(C)(C)c1ccc(N(C(=O)c2ccco2)[C@@H](C(=O)NCCc2cccc(F)c2)c2cccnc2)cc1
inhibition ([1]; 50.0 µM): 100%

Cc1cc(C(=O)CCl)c(C)n1CC1COc2ccccc2O1 (centres undefined)
IC50 [1]: 4.15 µM | inhibition ([1]; 50.0 µM): 82.2%

Cc1ccncc1NC(=O)Cc1cc(Cl)cc(-c2ccc(C)c(F)c2F)c1
IC50 [1]: 56.2 µM

CNc1ccc(N(C(=O)Cn2nnc3ccccc32)c2cccc(Cl)c2)cc1
IC50 [1]: 10.6 µM

Cc1ccncc1NC(=O)Cc1cc(Cl)cc(OCc2n[nH]c3ccccc23)c1
inhibition ([1]; 50.0 µM): 9.6%

Cc1ccncc1NC(=O)Cc1cc(Cl)cc(OCCN2CCOCC2C)c1 (centres undefined)
inhibition ([1]; 50.0 µM): 23.9%

Cc1ccncc1NC(=O)Cc1cc(C#N)cc(OC2CC(=O)N2)c1 (centres undefined)
IC50 [1]: 8.63 µM

O=C(Nc1cccc(F)c1)[C@@H](c1ccccc1)N1Cc2ccccc2C1=O (stereo in doubt)
IC50 [1]: 59.9 µM

O=C(Nc1ccc(Cl)cc1)[C@@H](c1ccccc1)N1Cc2ccccc2C1=O (stereo in doubt)
IC50 [1]: 65 µM

COc1ccc2c(NC(=O)Cc3cccc(Cl)c3)[nH]nc2c1
IC50 [1]: 52 µM

O=C(Nc1cncc2ccccc12)C1CCOc2ccc(Br)cc21 (centres undefined)
inhibition ([1]; 50.0 µM): 90.6%

CC(=O)O[C@@H]1OC2OC(=O)[C@H](C)C3=C([C@@]4(C)CCCC(C)(C)C4)CCC1C32 (stereo in doubt)
inhibition ([1]; 50.0 µM): 0%

Cc1ccc(NC2=C(c3ccccc3)C(=O)N(Cc3cccnc3)C2=O)cc1C
IC50 [1]: 43.5 µM

Cc1ccncc1NC(=O)Cc1cc(Cl)cc(NC2(C)CCC(F)(F)CC2)c1
IC50 [1]: 45.5 µM

C[C@H]1O[C@H](C)C2Oc3cc(O)c4c(=O)c5c6c7c8c(cc(=O)c9c(O)c1c2c(c3c47)c98)O[C@@H]6[C@@H](C)O[C@@H]5C (stereo in doubt)
inhibition ([1]; 50.0 µM): 0%

Nc1nn(C(=O)Cc2cccc(Cl)c2)c2ccc(F)cc12
IC50 [1]: 94.2 µM

CS(=O)(=O)Nc1cccc(C2=NN(C(=O)CCl)C(c3ccccc3)C2)c1 (centres undefined)
inhibition ([1]; 50.0 µM): 57.6%

O=C1CC(C(=O)Nc2cncc3ccccc23)c2cc(Br)ccc2N1 (centres undefined)
IC50 [1]: 1.12 µM

CCN(c1ccccc1)S(=O)(=O)c1ccc(OC)c(NC(=O)CCl)c1
IC50 [1]: 6.96 µM | inhibition ([1]; 50.0 µM): 61.2%

C=CC(=O)N(c1cc(C(C)(C)C)on1)C(C(=O)NCCc1cccc(F)c1)c1cncc(C#N)c1 (centres undefined)
IC50 [1]: 10.6 µM

CCC(=O)Nc1ccc(N(Cc2ccccc2)C(=O)Nn2nnc3ccccc32)cc1
IC50 [1]: 3.73 µM

O=C(Nc1cccnc1)[C@@H](c1ccccc1)N1Cc2ccccc2C1=O (stereo in doubt)
IC50 [1]: 59.6 µM

O=C(Nc1cncc2ccccc12)[C@@H]1COc2ccc(Cl)cc2C1 (stereo in doubt)
IC50 [1]: 3.56 µM

Cc1ccncc1NC(=O)Cc1cc(Cl)cc(S(N)(=O)=O)c1
IC50 [1]: 13.1 µM | inhibition ([1]; 50.0 µM): 64%

C[C@H]1C[C@@H](C(=O)Nc2cncc3ccccc23)c2cc(Cl)ccc2O1 (stereo in doubt)
IC50 [1]: 45.4 µM

Nc1nn(C(=O)Cc2cccc(Cl)c2)c2cccc(F)c12
IC50 [1]: 52.6 µM

C[N+]1=C2C=C(N/C=C/c3ccc(O)cc3)C(=O)c3[nH]cc(c32)CC1
inhibition ([1]; 50.0 µM): 8.91%

CC(C)(C)c1ccc(N(C(=O)c2cn[nH]c2)C(C(=O)NCCc2cccc(F)c2)c2cccnc2)cc1 (centres undefined)
IC50 [1]: 4.84 µM | inhibition ([1]; 50.0 µM): 100%

CC12CCCC(O1)c1c(cc3c(c1O)C(=O)c1c(O)cc(O)cc1C3=O)O2 (centres undefined)
inhibition ([1]; 50.0 µM): 26.4%

O=C(Cc1cc(Cl)cc(NCc2ccc(Br)cc2)c1)Nc1cncc2ccccc12
IC50 [2]: 1.43 µM

CC(C)Cn1cc(NC(=O)NCCN2CCOCC2)c2ccccc2c1=O
inhibition ([2]; 20.0 µM): -1.08% | inhibition ([2]; 50.0 µM): -1.81%

CC(C)Cn1cc(NC(=O)NCCCN2CCCC2=O)c2ccccc2c1=O
inhibition ([2]; 20.0 µM): -2.54% | inhibition ([2]; 50.0 µM): 3.77%

O=C(Cc1cc(Cl)cc(Nc2ccc(C(F)(F)F)cn2)c1)Nc1cncc2ccccc12
IC50 [2]: 1.22 µM

CCOC(=O)Cc1csc(NC(=O)Nc2cn(CC(C)C)c(=O)c3ccccc23)n1
inhibition ([2]; 20.0 µM): 23.2% | inhibition ([2]; 50.0 µM): 2.55%

O=C(O)C12CC(CNCc3ccc4c(c3)OCC4)(C1)OC2c1ccccc1 (centres undefined)
inhibition ([2]; 20.0 µM): -3.12% | inhibition ([2]; 50.0 µM): -4.27%

CCCc1c(C)[nH]c2[nH]n(-c3ccccc3)c(=O)c2c1=O
inhibition ([2]; 20.0 µM): 4.23% | inhibition ([2]; 50.0 µM): 2.81%

COC[C@@]1(C(=O)Nc2cncc3ccccc23)CCOc2cc(Cl)c(Cl)cc21 (stereo in doubt)
IC50 [2]: 16.9 µM

CCCCN(CCNC(=O)Nc1cn(C)c(=O)c2ccccc12)Cc1ccco1
inhibition ([2]; 20.0 µM): 6.22% | inhibition ([2]; 50.0 µM): 12.5%

C[C@@H]1CC[C@@H](c2ccoc2)N2C1CC[C@@]1(CS[C@@]3(CC[C@H]4[C@H](C)CC[C@@H](c5ccoc5)N4[C@@H]3O)C1)[C@@H]2O (stereo in doubt)
inhibition ([2]; 20.0 µM): -19.4% | inhibition ([2]; 50.0 µM): -23.4%

Cc1ccncc1CC(=O)Nc1cccc2c1CNCC2
inhibition ([2]; 20.0 µM): -1.08% | inhibition ([2]; 50.0 µM): 2.76%

Cc1ccc(NC(=O)Nc2cn(CC(C)C)c(=O)c3ccccc23)c(Br)c1
inhibition ([2]; 20.0 µM): 8.16% | inhibition ([2]; 50.0 µM): 9.66%

Cn1cc(NC(=O)N(Cc2ccco2)CC2CCCO2)c2ccccc2c1=O (centres undefined)
inhibition ([2]; 20.0 µM): 2.81% | inhibition ([2]; 50.0 µM): 0.168%

COc1cc(Cl)c(C)cc1NC(=O)Nc1cn(CC(C)C)c(=O)c2ccccc12
inhibition ([2]; 20.0 µM): 5.7% | inhibition ([2]; 50.0 µM): 9.03%

O=C(Nc1nncn1C1CC1)C1CCOc2ccccc21 (centres undefined)
inhibition ([2]; 20.0 µM): -1.27% | inhibition ([2]; 50.0 µM): 2.15%

COc1ccc2nc(NC(=O)Nc3cn(CC(C)C)c(=O)c4ccccc34)sc2c1
inhibition ([2]; 20.0 µM): 21.3% | inhibition ([2]; 50.0 µM): 17.6%

Cn1c(-c2ccc(NC(=O)C3CCCCC(=O)N3)cc2)nc2ccccc21 (centres undefined)
inhibition ([2]; 20.0 µM): -3.33% | inhibition ([2]; 50.0 µM): -2.97%

Nc1cc(C(F)(F)F)c(-c2nc(N3CCOCC3)nc(N3CCOCC3)n2)cn1
inhibition ([2]; 20.0 µM): 5.19% | inhibition ([2]; 50.0 µM): 5.97%

CC(C)Cn1cc(NC(=O)N2CCC(Cc3ccccc3)CC2)c2ccccc2c1=O
inhibition ([2]; 20.0 µM): -4.27% | inhibition ([2]; 50.0 µM): 3.43%

CC(C)Cn1cc(NC(=O)NC2CCCc3ccccc32)c2ccccc2c1=O (centres undefined)
inhibition ([2]; 20.0 µM): 26.4% | inhibition ([2]; 50.0 µM): 12.2%

Cc1ccncc1NC(=O)N(C)c1cccc(Cl)c1
inhibition ([2]; 20.0 µM): 17.6% | inhibition ([2]; 50.0 µM): 33.8%

COc1ccc(NC(=O)Nc2cn(C)c(=O)c3ccccc23)cc1OC
inhibition ([2]; 20.0 µM): 1.6% | inhibition ([2]; 50.0 µM): 10.8%

CC(NC(=O)c1cc2n(n1)CCO2)(C(=O)Nc1cncc2ccccc12)c1ccc(Cl)c(Cl)c1 (centres undefined)
IC50 [2]: 8.52 µM

C[C@@H](Cn1ccc(-c2ccc(C#N)c(Cl)c2)n1)NC(=O)c1cc([C@@H](C)O)[nH]n1 (stereo in doubt)
inhibition ([2]; 20.0 µM): 3.16% | inhibition ([2]; 50.0 µM): -11.9%

O=C(Nc1cncc2ccccc12)[C@@H]1COc2ccc(Cl)cc21 (stereo in doubt)
IC50 [2]: 0.555 µM

O=C(Nc1cncc2ccccc12)[C@@H]1CCNc2cc(Cl)c(Cl)cc21 (stereo in doubt)
IC50 [2]: 0.05 µM

Cn1cnc(CN(C(=O)c2cnnn2-c2ccccc2)c2ccc(OCc3ccccc3)cc2)c1
inhibition ([2]; 20.0 µM): -1.63% | inhibition ([2]; 50.0 µM): 1.89%
